# Test results reported in patent US6303618A, “Cyclin dependent kinase inhibiting purine derivatives” (priority 1997, dated 2001).
# Like-named read-outs stand apart in the source and are kept apart here.
# Columns and labels:
# [1] = Insolubility noted in the CDK assay
# CDK1 (p34 cdc2)/cyclin B = experiment: CDK inhibition assay (histone H1 kinase), CDK1; format: biochemical, starfish (Marthasterias glacialis); details: for % inhibition CDK1: at 10 μM
# Experimental: (§1) By way of example, however, a typical protocol is summarised below.
# Histone H1 (type III-S (Sigma) 4° C.) 5 mg/ml in buffer C.
# [^32 P]ATP […]: Make up using (multiples of) the following proportions:
# DMSO cannot exceed 1% in the assay mixture. Inhibitors are added at 1/10 final assay volume and 10×final strength. DMSO stocks must therefore be diluted to 10×final desired concentration in ≤10% DMSO, ≥90% buffer C.
# Start reaction in each tube at 30 second intervals by adding
# […] [^32 P]ATP vortexing and placing in rack in waterbath at 30° C.
# Terminate reaction after 10 min at 30 second intervals in tubes in same order by removing
# […] reaction mix and spotting onto appropriately labelled filter, allowing to dry for 20-30 seconds and transferring to stirring 1% phosphoric acid.
# Blank incubation is performed as above but without histone (add […] buffer C instead) Washing blank is […] ATP added directly to filter.
# CDK2 = CDK2 (Homo sapiens, UniProt P24941); experiment: CDK inhibition assay, CDK2; format: biochemical
# Text: (§2) Apart from reference compounds, the compounds listed are accompanied by an NU reference or identification code number.
# as §1
# CDK4 [2] = molecular target: T1, CDK4 (Homo sapiens, UniProt P11802); experiment: CDK inhibition assay, CDK4; format: biochemical; details: Table 1
# Text: as §2, §1
# CDK6 = details: in words; cited from earlier work
# [3] = tested on: many common kinases other than CDK's; details: in words; cited from earlier work
# CDK = details: in words; cited from earlier work
# Cytotoxicity = format: cell-based
# [4] = tested on: O^6 -methylguanine DNA-methyltransferase (MGMT)
# CDK4 [5] = molecular target: T1, CDK4; details: in words; cited from earlier work
# [6] = at 10 μM, read-out: % inhibition CDK2
# [7] = read-out: % inhibition CDK2, at 10 μM
# T1 sequence (P11802 whole entry, species assumed): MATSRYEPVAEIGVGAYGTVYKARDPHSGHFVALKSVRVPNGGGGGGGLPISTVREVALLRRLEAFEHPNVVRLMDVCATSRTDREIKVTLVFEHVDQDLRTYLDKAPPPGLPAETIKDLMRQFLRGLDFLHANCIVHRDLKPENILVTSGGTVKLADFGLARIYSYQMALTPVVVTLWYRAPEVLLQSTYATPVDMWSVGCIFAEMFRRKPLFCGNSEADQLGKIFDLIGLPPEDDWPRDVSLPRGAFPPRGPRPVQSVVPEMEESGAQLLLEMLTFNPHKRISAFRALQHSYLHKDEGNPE
# T1 sequence (P24385 whole entry partner, species assumed): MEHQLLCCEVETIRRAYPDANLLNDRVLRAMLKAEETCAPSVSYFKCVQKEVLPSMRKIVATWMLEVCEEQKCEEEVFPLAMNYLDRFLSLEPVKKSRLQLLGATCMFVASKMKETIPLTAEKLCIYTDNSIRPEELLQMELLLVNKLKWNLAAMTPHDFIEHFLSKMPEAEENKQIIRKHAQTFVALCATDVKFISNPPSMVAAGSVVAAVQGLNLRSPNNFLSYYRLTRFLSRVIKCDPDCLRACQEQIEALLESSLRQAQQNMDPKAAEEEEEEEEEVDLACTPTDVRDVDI
Structure (SMILES),insolubility in CDK2 assay ([1]; at 100 μM),% inhibition CDK1 (CDK1 (p34 cdc2)/cyclin B) [%],inhibition at 10 µM (CDK2; [7]) [%],other results
"CN(C)c1nc(OCC2CCCCC2)c2nc[nH]c2n1 [NU6048, 2-dimethylamino-6-cyclohexyl methoxypurine]",Insol,27 ± 6,,insolubility in CDK1 assay ([1]; at 100 μM): Insol; inhibition at 10 µM (CDK2; [6]): 31 ± 3%
"Nc1nc(OCc2ccc3ccccc3c2)c2nc[nH]c2n1 [NU6018, 2-amino-6-(2-naphthyl)-methyloxypurine]",Insol,12 ± 4,9 ± 9,"IC50 (CDK4 [2]; CDK4, read-out: IC50 CDK4): > 100 µM"
"Nc1nc(OCC23CC4CC(CC(C4)C2)C3)c2[nH]cnc2n1 [NU6014, 2-amino-6-adamantyl-methyloxypurine]",Insol,,20 ± 4,"IC50 (CDK4 [2]; CDK4, read-out: IC50 CDK4): > 100 µM"
"Nc1cc(OCC2CCCCC2)nc(N)n1 [NU6034, 2,6-diamino-4(cyclohexylmethoxy)-pyrimidine]",Insol,,7 ± 3,
"Cn1cnc2c(NCc3ccccc3)nc(NCCO)nc21 [Olomoucine, 2-(2-hydroxyethylamino)-6-benzylamino-9-methyl-purine]",,,,activity against CDK6 (CDK6): neither has been found to be active; inhibitory activity in relation to many common kinases other than CDK's [3]: total lack of inhibitory activity; mode of inhibition (CDK): competitive inhibitors for ATP binding
"Nc1nc(OCC2CCCCC2)c2[nH]c(=O)[nH]c2n1 [NU6033, 2-Amino-6-cyclohexylmethyloxy-8-oxopurine]",,,,insolubility in CDK1 assay ([1]; at 10 μM): insol.
"Nc1nc(OCc2cccc3ccccc23)c2nc[nH]c2n1 [NU6020, 2-amino-6-(1-naphthyl)-methyloxypurine]",Insol,10 ± 4,3 ± 4,"IC50 (CDK4 [2]; CDK4, read-out: IC50 CDK4): > 100 µM"
"Clc1nc(OCC2CCCCC2)c2[nH]cnc2n1 [NU6047, 2-chloro-6-cyclohexylmethoxypurine]",Insol,6 ± 4,5 ± 3,insolubility in CDK1 assay ([1]; at 100 μM): Insol
"Nc1nc(OCC2CCCCC2)c2nc[nH]c2n1 [NU2058, O^6 -Cyclohexylmethylguanine]",,,,"IC50 (CDK4 [2]; IC50 CDK4, CDK4): 38 µM; cytotoxicity (Cytotoxicity): cytotoxic; inhibitory activity against CDK1(cdc2)/cyclin B complexes (CDK1 (p34 cdc2)/cyclin B; in words, compared with olomoucine): very high inhibitory activity, comparable to that of olomoucine; activity as MGMT inhibitor [4]: very little activity"
"Nc1nc(N)c(N=O)c(OCC2CCCCC2)n1 [NU6027, 2,6-diamino-4-cyclohexyl-methyloxy-5-nitroso-pyrimidine]",Insol,,,
Nc1nc(N)c(N=Nc2ccc(Cl)cc2)c(OCC2CCCCC2)n1 [NU6037],Insol,3 ± 3,,inhibition at 10 µM (CDK2; [6]): 6 ± 4%
Nc1nc(N)c(N=O)c(OCC2CC=CCC2)n1 (centres unmarked) [NU6045],Insol,73 ± 3,70 ± 1,"IC50 (CDK2; CDK2, Table 1, read-out: IC50 CDK2): 6.1 µM"
C=C(C)[C@@H]1CC=C(COc2nc(N)nc3[nH]cnc23)CC1 [NU2077],insol,,16 ± 26,"IC50 (CDK4 [2]; CDK4, read-out: IC50 CDK4): > 100 µM; IC50 (CDK1 (p34 cdc2)/cyclin B; CDK1, Table 1): 22 µM; inhibition at 25 µM (CDK2; read-out: % inhibition CDK2, at 25 μM): 54%"
"CC[C@H](CO)Nc1nc(NCc2ccccc2)c2ncn(C(C)C)c2n1 [roscovitine, 6-(benzylamino)-2(R)-[{1-(hydroxy-methyl)propyl}amino]-9-isopropylpurine]",,,,activity against CDK4 (CDK4 [5]): neither has been found to be active; mode of inhibition (CDK): competitive inhibitors for ATP binding
